This note sets out measurements from patent publication US11312706B2, “Cyclohexyl acid pyrazole azines as LPA antagonists” (BRISTOL-MYERS SQUIBB COMPANY, priority 2017, dated 2022).

As a reminder, the IC50 is the midpoint of a concentration-inhibition curve.

Molecules are shown by their SMILES.

T1 sequence (Q92633 whole entry): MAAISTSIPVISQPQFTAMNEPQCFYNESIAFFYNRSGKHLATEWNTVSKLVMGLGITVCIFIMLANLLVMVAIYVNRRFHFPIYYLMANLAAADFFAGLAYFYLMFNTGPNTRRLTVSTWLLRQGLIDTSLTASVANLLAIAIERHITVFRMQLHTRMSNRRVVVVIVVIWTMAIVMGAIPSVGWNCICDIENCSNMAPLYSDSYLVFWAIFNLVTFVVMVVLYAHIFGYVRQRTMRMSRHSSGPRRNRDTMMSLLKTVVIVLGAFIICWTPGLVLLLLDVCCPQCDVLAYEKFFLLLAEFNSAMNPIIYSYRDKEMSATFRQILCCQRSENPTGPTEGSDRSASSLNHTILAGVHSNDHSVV

The test addresses T1, human LPA1 (Homo sapiens, UniProt Q92633).
T1 construct: expressed in transfected cells; host or cells: Chinese hamster ovary (CHO) cells
Kind of test: LPA1 functional antagonist assay (LPA-induced calcium flux). Conditions: CHO cells overexpressing human LPA1, 10 nM LPA, read-out: hLPA1 IC50. Format: cell-based. The procedure:
The effectiveness of compounds of the present invention as LPA1 inhibitors can be determined in an LPA1 functional antagonist assay as follows:
Chinese hamster ovary cells overexpressing human LPA1 were plated overnight (15,000 cells/well) in poly-D-lysine coated 384-well microplates (Greiner bio-one, Cat #781946) in DMEM/F12 medium (Gibco, Cat #11039). Following overnight culture, cells were loaded with calcium indicator dye (AAT Bioquest Inc, Cat #34601) for 30 minutes at 37° C. The cells were then equilibrated to room temperature for 30 minutes before the assay. Test compounds solubilized in DMSO were transferred to 384 well non-binding surface plates (Corning, Cat #3575) using the Labcyte Echo acoustic dispense and diluted with assay buffer [1×HBSS with calcium/magnesium (Gibco Cat #14025-092), 20 mM HEPES (Gibco Cat #15630-080) and 0.1% fatty acid free BSA (Sigma Cat #A9205)] to a final concentration of 0.5% DMSO. Diluted compounds were added to the cells by FDSS6000 (Hamamatsu) at final concentrations ranging from 0.08 nM to 5 μM. and were then incubated for 20 min at room temperature at which time LPA (Avanti Polar Lipids Cat #857130C) was added at final concentrations of 10 nM to stimulate the cells. The compound IC50 value was defined as the concentration of test compound which inhibited 50% of the calcium flux induced by LPA alone. IC50 values were determined by fitting data to a 4-parameter logistic equation (GraphPad Prism, San Diego Calif.).
(In general: Calcium assays in cells follow changes in intracellular calcium, usually with a dye or a luminescent sensor.)
For the molecule `Cc1nc(-c2cnn(C)c2CNc2ccnc(OC3CC(F)(F)C3)n2)ncc1O[C@H]1CCC[C@H](C(=O)O)C1` [Example 32, (1S,3S)-3-((2-(5-(((2-(3,3-difluorocyclobutoxy)pyrimidin-4-yl)amino)methyl)-1-methyl-1H-pyrazol-4-yl)-4-methylpyrimidin-5-yl)oxy)cyclohexane-1-carboxylic acid], the IC50 came to 619 nM.

For `Cc1nc(-c2cnn(C)c2CNc2ncnc(C(C)C)n2)ncc1O[C@H]1CCC[C@H](C(=O)O)C1` [Example 43, (1S,3S)-3-((2-(5-(((4-isopropyl-1,3,5-triazin-2-yl)amino)methyl)-1-methyl-1H-pyrazol-4-yl)-4-methylpyrimidin-5-yl)oxy)cyclohexane-1-carboxylic acid], the IC50 worked out at 28 nM.

In the case of `Cc1nc(-c2cnn(C)c2CNc2nccc(OCC(F)F)n2)ncc1O[C@H]1CCC[C@H](C(=O)O)C1` [Example 40, (1S,3S)-3-((2-(5-(((4-(2,2-difluoroethoxy)pyrimidin-2-yl)amino)methyl)-1-methyl-1H-pyrazol-4-yl)-4-methylpyrimidin-5-yl)oxy)cyclohexane-1-carboxylic acid], the IC50 was 2.7 nM.

Take `CCc1nc(-c2cnn(C)c2CNc2nccc(OCC(C)(F)F)n2)ncc1O[C@H]1CCC[C@H](C(=O)O)C1` [Example 26]: the IC50 came out at 15 nM.

As to `Cc1nc(-c2cnn(C)c2CNc2nccc(Oc3ccccc3)n2)ncc1O[C@H]1CCC[C@H](C(=O)O)C1` [Example 9, (1S,3S)-3((4-methyl-2-(1-methyl-5-(((4-phenoxypyrimidin-2-yl)amino)-methyl)-1H-pyrazol-4-yl)pyrimidin-5-yl)oxy)cyclohexane-1-carboxylic acid], the IC50 stood at 32 nM.

Turning to `CCNc1nc(NCc2c(-c3ncc(O[C@H]4CCC[C@H](C(=O)O)C4)c(C)n3)cnn2C)ncc1F` [Example 38, (1S,3S)-3-((2-(5-(((4-(ethylamino)-5-fluoropyrimidin-2-yl)amino)methyl)-1-methyl-1H-pyrazol-4-yl)-4-methylpyrimidin-5-yl)oxy)cyclohexane-1-carboxylic acid], the IC50 amounted to 41 nM.

Consider `COCCCOc1ccnc(NCc2c(-c3ncc(O[C@H]4CCC[C@H](C(=O)O)C4)c(C)n3)cnn2C)n1` [Example 36, (1S,3S)-3-((2-(5-(((4-(3-methoxypropoxy)pyrimidin-2-yl)amino)methyl)-1-methyl-1H-pyrazol-4-yl)-4-methylpyrimidin-5-yl)oxy)cyclohexane-1-carboxylic acid], for which the IC50 was found to be 27 nM.

With `Cn1ncc(-c2ccc(O[C@H]3CCC[C@H](C(=O)O)C3)cn2)c1Nc1cccc(-c2cccc(F)c2)n1` [Example 42, (1S,3S)-3-{[6-(5-{[6-(3-fluorophenyl)pyridin-2-yl]amino}-1-methyl-1H-pyrazol-4-yl)pyridin-3-yl]oxy}cyclohexane-1-carboxylic acid], the IC50 came out at 137 nM.

Take `Cc1nc(-c2cnn(C)c2CNc2nccc(OCC(F)(F)C(F)F)n2)ncc1O[C@H]1CCC[C@H](C(=O)O)C1` [Example 39, (1S,3S)-3((4-methyl-2-(1-methyl-5-(((4-(2,2,3,3-tetrafluoropropoxy)pyrimidin-2-yl)amino)methyl)-1H-pyrazol-4-yl)pyrimidin-5-yl)oxy)cyclohexane-1-carboxylic acid]: the IC50 was 6.2 nM.

For `CCc1nc(-c2cnn(C)c2CNc2nccc(OCCOC)n2)ncc1O[C@H]1CCC[C@H](C(=O)O)C1` [Example 27, (1S,3S)-3-((4-ethyl-2-(5-(((4-(2-methoxyethoxy)pyrimidin-2-yl)amino)methyl)-1-methyl-1H-pyrazol-4-yl)pyrimidin-5-yl)oxy)cyclohexane-1-carboxylic acid], the IC50 was 61 nM.

For `Cn1ncc(-c2ccc(O[C@H]3CCC[C@H](C(=O)O)C3)cn2)c1COc1cccc(-c2ccccc2)c1` (relative stereo) [Example 30, Trans-3-((6-(5-(([1,1′-biphenyl]-3-yloxy)methyl)-1-methyl-1H-pyrazol-4-yl)pyridin-3-yl)oxy)cyclohexane-1-carboxylicacid], the IC50 stood at 104 nM.

Consider `Cc1nc(-c2cnn(C)c2CNc2nccc(C3CC3)n2)ncc1O[C@H]1CCC[C@H](C(=O)O)C1` [Example 12, (1S,3S)-3-((2-(5-(((4-cyclopropyl-pyrimidin-2-yl)amino)methyl)-1-methyl-1H-pyrazol-4-yl)-4-methyl-pyrimidin-5-yl)oxy)cyclohexane-1-carboxylic acid], for which the IC50 is 172 nM.

With `Cc1nc(-c2cnn(C)c2CNc2nccc(C(C)C)n2)ncc1O[C@H]1CCC[C@H](C(=O)O)C1` [Example 10, (1S,3S)-3-((2-(5-(((4-isopropyl-pyrimidin-2-yl)amino)methyl)-1-methyl-1H-pyrazol-4-yl)-4-methyl-pyrimidin-5-yl)oxy)cyclohexane carboxylic acid], the IC50 stood at 47 nM.

`CCc1nc(-c2cnn(C)c2CNc2nccc(OC3CC3)n2)ncc1O[C@H]1CCC[C@H](C(=O)O)C1` [Example 22, (1S,3S)-3-((2-(5-(((4-cyclopropoxy-pyrimidin-2-yl)amino)methyl)-1-methyl-1H-pyrazol-4-yl)-4-ethylpyrimidin-5-yl)oxy)cyclohexane-1-carboxylic acid]: the IC50 stood at 7 nM.

In the case of `Cc1nc(-c2cnn(C)c2CNc2nccc(-c3ccccc3)n2)ncc1O[C@H]1CCC[C@H](C(=O)O)C1` [Example 13, (1S,3S)-3-((4-methyl-2-(1-methyl-5-(((4-phenylpyrimidin-2-yl)amino)methyl)-1H-pyrazol-4-yl)pyrimidin-5-yl)oxy)cyclohexanecarboxylic acid], the IC50 is 33 nM.

On to `CCCOc1ccnc(NCc2c(-c3ncc(O[C@H]4CCC[C@H](C(=O)O)C4)c(CC)n3)cnn2C)n1` [Example 23, (1S,3S)-3-((4-ethyl-2-(1-methyl-5-(((4-propoxypyrimidin-2-yl)amino)methyl)-1H-pyrazol-4-yl)pyrimidin-5-yl)oxy) cyclohexane-1-carboxylic acid], for which the IC50 stood at 2 nM.

`CCc1ccnc(NCc2c(-c3ncc(O[C@H]4CCC[C@H](C(=O)O)C4)c(C)n3)cnn2C)n1` [Example 35, (1S,3S)-3-((2-(5-(((4-ethylpyrimidin-2-yl)amino)methyl)-1-methyl-1H-pyrazol-4-yl)-4-methylpyrimidin-5-yl)oxy)cyclohexane-1-carboxylic acid]: the IC50 was 207 nM.

With `Cc1nc(-c2cnn(C)c2CNc2nccc(OCC(F)(F)F)n2)ncc1O[C@H]1CCC[C@H](C(=O)O)C1` [Example 16, (1S,3S)-3-((4-methyl-2-(1-methyl-5-(((4-(2,2,2-trifluoroethoxy)pyrimidin-2-yl)amino)methyl)-1H-pyrazol-4-yl)pyrimidin-5-yl)oxy)cyclohexane-1-carboxylic acid], the IC50 amounted to 12 nM.

In the case of `CCc1nc(-c2cnn(C)c2CNc2nccc(OCCCF)n2)ncc1O[C@H]1CCC[C@H](C(=O)O)C1` [Example 25, (1S,3S)-3-((4-ethyl-2-(5-(((4-(3-fluoropropoxy)pyrimidin-2-yl)amino)methyl)-1-methyl-1H-pyrazol-4-yl)pyrimidin-5-yl)oxy)cyclohexane-1-carboxylic acid], the IC50 amounted to 18 nM.

With `CCCOc1ccnc(Nc2c(-c3ncc(O[C@H]4CCC[C@H](C(=O)O)C4)c(C)n3)cnn2C)n1` [Example 20, (1S,3S)-3-((4-methyl-2-(1-methyl-5-((4-propoxypyrimidin-2-yl)amino)-1H-pyrazol-4-yl)pyrimidin-5-yl)oxy)cyclohexane-1-carboxylic acid], the half-inhibitory concentration (IC50) is 1230 nM.
